Data reported in patent US9849191B2, “Protein-polymer-drug conjugates” (MERSANA THERAPEUTICS, INC., priority 2013, dated 2017).
Non-standard residues stand in square brackets, D forms with d. Residues, ends and D or L forms follow the SMILES beside them. *: point of attachment. Dolaproine = CO[C@@H]([C@@H]1CCCN1)[C@@H](C)C(=O)O; Dil = CC[C@H](C)[C@H](NC)[C@@H](CC(=O)O)OC; NMe2Val = CC(C)[C@@H](C(=O)*)N(C)C; NH(3-hydroxypropyl) = OCCCN*

Test: Tolerability of Auristatin F-hydroxypropylamide (MTD study)
Assay type: in vivo, mice
Conditions: n=6
Description: The vehicle control group received physiological saline.

With `CC[C@H](C)[C@@H]([C@@H](CC(=O)N1CCC[C@H]1[C@H](OC)[C@@H](C)C(=O)N[C@@H](Cc1ccccc1)C(=O)NCCCO)OC)N(C)C(=O)[C@@H](NC(=O)[C@H](C(C)C)N(C)C)C(C)C` [AF-HPA, auristatin F hydroxypropyl amide] (NMe2Val-V[Dil][Dolaproine]F-{NH(3-hydroxypropyl)}) the Mortality or morbidity (3.2 mg/kg single IV dose) was 1 animal died on day 7, 3 and the Mortality or morbidity (4.7 mg/kg single IV dose) was 1 animal died on Day 3, 1.
